According to article PMC7808747, “Design, synthesis, and in vitro evaluation of BP-1-102 analogs with modified hydrophobic fragments for STAT3 inhibition” (Journal of Enzyme Inhibition and Medicinal Chemistry, 2021):
“Also recorded” adds a separate entry of the source. Read-outs that look alike come from different tables or passages of the source.

Tests used:
[1] = test system: human breast cancer MDA-MB-231 cell line; assay: Resazurin cytotoxicity assay, MDA-MB-231; type: cell-based; conditions: for cytotoxic effect in MDA-MB-231 (in words): 0, 5, 10, 20, 50 µM
Method: (§1) The cells were treated with the compounds at concentrations 0, 5, 10, 20, and 50 µM for 24 h, and the cytotoxicity was estimated by the resazurin assay.
To estimate IC50 of 6 and 14, MDA-MB-231 cells were treated with 1 (0, 2, 5, 10, 15, 20, 25, 30, 40, and 50 µM), 6 (0, 5, 10, 20, 25, 30, 40, 50, 70, and 100 µM), and 14 (0, 20, 40, 50, 60, 70, 80, 100, 150, and 200 µM) for 24 h.
(§2) The resazurin reduction assay[34] was performed as described previously. Briefly, cells were seeded onto a 96-well plate (2000 cells per well) in hexaplicate and the following day treated with the tested compounds (dissolved in DMSO as 50 mM stock) in a concentration range as indicated. After 24 h, 200 μl of culture medium of each well was exchanged for 100 μl of resazurin (stock 30 mg/ml; Sigma, St. Louis, MO) diluted 10 times in the culture medium, and the cells were incubated at 37 °C for 1–3 h. Reading of fluorescence was done using an Envision reader (PerkinElmer, Waltham, MA). Absolute values of fluorescence were related to the values of control/untreated cells. To estimate the cytotoxic concentration (half maximal inhibitory concentration, IC50), log-scale data were processed in GraphPad Prism software (La Jolla, CA) using nonlinear fit curve.

human glioblastoma U373 = assay: Crystal violet assay, U373; conditions: 0–50 µM, 24 h
Method: as §1
(§3) To determine cell viability by crystal violet assay, cells were seeded in 96-well plates at densities of 3000 (RPE-1), 5000 (U373 and T98-G), and 8000 (U-87 MG) cells per well. The next day the cells were treated with the tested compounds in triplicate in a concentration range as indicated. After 24 h, the cells in each well were washed twice with 150 µl PBS and then stained in 30 µl 0.5% w/v crystal violet in 20% methanol for 15 min. Plates were washed three times with double distilled H2O and left to dry overnight. Crystal violet was solubilised with 75 µl 0.2% Triton X-100 (Sigma, St. Louis, MO) in PBS for 15 min. Absorbance of crystal violet was measured at 595 nm using a microplate reader (Multiskan EX, Thermo Electron Corporation, Waltham, MA). Absorbance of the treated samples was expressed as a percentage of absorbance of untreated cells.

[2] = test system: STAT3 Y705 phosphorylation (pY705); assay: STAT3 pY705 immunoblotting, MDA-MB-231; type: cell-based, human; conditions: MDA-MB-231, micromolar concentration range, 4 h
Method: The cells were exposed to BP-1-102 (1), compounds 6 and 14 in a micromolar concentration range for 4 h, and then the levels of STAT3 pY705 and total STAT3 were probed by immunoblotting with specific antibodies. […] It can be concluded that both novel compounds 6 and 14 manifested inhibitory effects on receptor-mediated phosphorylation of Y705 of STAT3 in both human and mouse cell lines.
Cells were washed three times with PBS, harvested into 95 °C-heated Laemmli SDS sample lysis buffer (2% SDS, 50 mM Tris–Cl, 10% glycerol in double distilled H2O) and sonicated at 3 μm amplitude for 3 × 10 or 3 × 30 s with 10 or 30 s cooling intervals in a Soniprep 150 (MSE, London, UK) or Diagenode Bioruptor 300 (Diagenode, Liege, Belgium) for human and murine cell lines, respectively. Concentration of proteins was estimated by the Pierce^TM BCA Protein Assay (Thermo Scientific, Waltham, MA). DTT (100 mM) and 0.01% bromophenol blue were added to the lysates before separation by SDS-PAGE (10% gels were used). Equal protein amounts (40 or 35 μg for human or murine cell lines, respectively) were loaded into each well. Proteins were electrotransferred onto a nitrocellulose membrane (Amersham^TM Protran^TM 0.45 µm NC, GE Healthcare, Chalfont St Giles, UK) using wet transfer and detected by specific antibodies (at 4 °C overnight) combined with HRP-conjugated secondary antibodies. Peroxidase activity was detected by Amersham^TM ECL Western Blotting Detection Reagents (GE Healthcare, Chalfont St Giles, UK). GAPDH was used as a loading control.

[3] = test system: human immortalised retinal pigment epithelium RPE-1; assay: Crystal violet assay, RPE-1; conditions: 0–50 µM, 24 h
Method: as §1, §3

TRAMP-C2 cells = assay: Annexin V / propidium iodide FACS, TRAMP-C2; type: cell-based, mouse; conditions: TRAMP-C2, 24 h
Method: (§6) Cells were harvested by centrifugation, resuspended in cold PBS and again centrifuged. Cell pellets were then resuspended in Annexin V Binding Buffer (ApoFlowEx FITC Kit, ED7044, Exbio, Vestec, Czech Republic), annexin V-APC and PI were added to the cell pellet and mixed. Cells were incubated in the dark at room temperature for 15 min. After the incubation, cells were centrifuged, resuspended in Annexin V Binding Buffer and analysed by flow cytometry. Five thousand cells per sample were measured by analysing annexin V and PI using a BD FACSVerse™ flow cytometer (BD Biosciences, Franklin Lakes, NJ). Data were analysed using FlowJo 10 software (FlowJo LLC, Ashland, OR), and the percentage of viable (annexin V-negative/PI-negative) cells relative to control was plotted.

[4] = test system: mouse lung TC-1 cancer cell line; assay: MTT cytotoxicity assay, TC-1; type: cell-based; conditions: for cytotoxic effect in TC-1 (in words): 0–50 µM, 24 h; for IC50: Mus musculus, read-out: IC50±SD TC-1
Method: (§4) Cells were seeded at the density of 2000 cells per well (96-well F microplates; Nunc, Roskilde, Denmark). The following day, the tested compounds were added. In the next 24 h, MTT (3-(4,5-dimethylthiazol-2-yl)-2,5-diphenyltetrazolium bromide) was added. After 6 h, DMF (dimethylformamide) was added, and after additional 24 h, absorbance was measured at 560 nm by a microplate reader.

[5] = test system: human glioblastoma cell line T98; assay: Crystal violet assay, T98; conditions: 0–80 µM, 24 h, compared to U-87 cells
Method: (§5) Furthermore, the cytotoxicity of compound 6 was compared to BP-1-102 (1) in human glioblastoma cell lines U-87 and T98 in concentration range 0–80 µM for 24 h using the crystal violet assay.
as §3

RPE-1 = assay: Resazurin assay, RPE-1 (Table 2); type: cell-based; conditions: Homo sapiens, resazurin assay (footnote a), read-out: IC50±SD RPE-1
Method: The resazurin reduction assay[34] was performed as described previously[38]. Briefly, cells were seeded onto a 96-well plate (2000 cells per well) in hexaplicate and the following day treated with the tested compounds (dissolved in DMSO as 50 mM stock) in a concentration range as indicated. After 24 h, 200 μl of culture medium of each well was exchanged for 100 μl of resazurin (stock 30 mg/ml; Sigma, St. Louis, MO) diluted 10 times in the culture medium, and the cells were incubated at 37 °C for 1–3 h. Reading of fluorescence was done using an Envision reader (PerkinElmer, Waltham, MA). Absolute values of fluorescence were related to the values of control/untreated cells. To estimate the cytotoxic concentration (half maximal inhibitory concentration, IC50), log-scale data were processed in GraphPad Prism software (La Jolla, CA) using nonlinear fit curve.

[6] = test system: mouse prostate TRAMP-C2 cancer cell line; assay: MTT cytotoxicity assay, TRAMP-C2; type: cell-based; conditions: for cytotoxic effect in TRAMP-C2 (in words): 0–50 µM, 24 h; for IC50: Mus musculus, read-out: IC50±SD TRAMP-C2
Method: as §4

MDA-MB-231 cells = assay: Annexin V / propidium iodide FACS, MDA-MB-231; type: cell-based, human; conditions: MDA-MB-231, 0, 5, 10, 20, 50 µM, 24 h
Method: as §6

TC-1 cells = assay: Annexin V / propidium iodide FACS, TC-1; conditions: TC-1, 24 h
Method: as §6

[7] = test system: prostate carcinoma DU-145; assay: Resazurin cytotoxicity assay, DU-145; conditions: Homo sapiens, DU-145, read-out: IC50±SD DU-145
Method: as §5, §2

[8] = test system: human breast adenocarcinoma MCF-7; assay: Resazurin cytotoxicity assay, MCF-7; conditions: Homo sapiens, MCF7, read-out: IC50±SD MCF-7
Method: as §5, §2

[9] = Homo sapiens, MDA-MB-231, 24 h, resazurin assay, 24 h, read-out: IC50±SD MDA-MB-231

CN(CC(=O)N(Cc1ccc(C(F)(F)F)cc1)c1ccc(C(=O)O)c(O)c1)S(=O)(=O)c1ccccc1 [Compound 9, 4-(N-(4-Trifluoromethylbenzyl)-2-(N-methylphenylsulfonyl)acetamido)-2-hydroxybenzoic acid]
cytotoxic effect in MDA-MB-231 (in words) ([1]; 24 h, resazurin assay): complete loss of cytotoxic activity

Cc1ccc(S(=O)(=O)N(C)CC(=O)N(Cc2ccccc2)c2ccc(C(=O)O)c(O)c2)cc1 [Compound 3, 4-(N-(Benzyl)-2-(N-methyl-N-(p-toluenesulfonyl))acetamido)-2-hydroxybenzoic acid]
cytotoxic effect in MDA-MB-231 (in words) ([1]; 24 h, resazurin assay): lacking any significant cytotoxicity; also recorded: complete loss of cytotoxic activity

CN(CC(=O)N(Cc1ccc(C(C)(C)C)cc1)c1ccc(C(=O)O)c(O)c1)S(=O)(=O)c1c(F)c(F)c(F)c(F)c1F [Compound 6, 4-(N-(4-tert-Butylbenzyl)-2-(2,3,4,5,6-pentafluoro-N-methylphenylsulfonamido)acetamido)-2-hydroxybenzoic acid]
cytotoxic activity in U373 (in words) (human glioblastoma U373): concentration-dependent cytotoxic activity
inhibition of constitutive STAT3 Y705 phosphorylation [2]: inhibited constitutive STAT3 phosphorylation
cytotoxic activity in RPE-1 (in words) [3]: concentration-dependent cytotoxic activity
cytotoxicity by annexin V/PI staining and FACS (TRAMP-C2 cells): confirmed
cytotoxic effect in TC-1 (in words) [4]: cytotoxic activity comparable to BP-1-102 (1)
IC50 [4]: 6.2 ± 1.1 µM
cytotoxicity in T98 (in words) [5]: remarkable resistance
IC50 (RPE-1): 24.5 ± 2.6 µM
cytotoxic effect in TRAMP-C2 (in words) ([6]; MTT assay): cytotoxic activity comparable to BP-1-102 (1)
IC50 ([6]; MTT assay): 14.5 ± 13.4 µM
cell death induction (annexin V/PI, FACS) (MDA-MB-231 cells): cell death induction was confirmed
cytotoxicity by annexin V/PI staining and FACS (TC-1 cells): confirmed
IC50 [7]: 34 ± 2.6 µM
IC50 [1, 9]: 26.2 µM
concentration from which the compound was cytotoxic ([1]; MDA-MB-231, 24 h, resazurin assay): 10 µM
IC50 ([1]; resazurin assay, 24 h, read-out: IC50±SD MDA-MB-231): 26.2 ± 5.6 µM
IC50 [8]: 19.6 ± 3.6 µM

COc1ccc(CN(C(=O)CN(C)S(=O)(=O)c2c(F)c(F)c(F)c(F)c2F)c2ccc(C(=O)O)c(O)c2)cc1 [Compound 8, 4-(N-(4-Methoxybenzyl)-2-(2,3,4,5,6-pentafluoro-N-methylphenylsulfonamido)acetamido)-2-hydroxybenzoic acid]
cytotoxic activity in U373 (in words) (human glioblastoma U373): no cytotoxic activity
cytotoxic effect in TC-1 (in words) [4]: mild cytotoxic effect; also recorded: mild cytotoxicity
cytotoxic effect in TRAMP-C2 (in words) ([6]; MTT assay): mild cytotoxic effect; also recorded: mild cytotoxicity
cytotoxic effect in MDA-MB-231 (in words) ([1]; 24 h, resazurin assay): lacking any significant cytotoxicity; also recorded: no cytotoxic activity

Cc1ccc(S(=O)(=O)N(C)CC(=O)N(Cc2ccc(C(C)(C)C)cc2)c2ccc(C(=O)O)c(O)c2)cc1 [Compound 5, 4-(N-(4-tert-Butylbenzyl)-2-(N-methyl-N-(p-toluenesulfonyl))acetamido)-2-hydroxybenzoic acid]
cytotoxic effect in MDA-MB-231 (in words) ([1]; 24 h, resazurin assay): mild-to-negligible cytotoxicity; also recorded: complete loss of cytotoxic activity

CN(CC(=O)N(Cc1ccc(C2CCCCC2)cc1)c1ccc(C(=O)O)c(O)c1)S(=O)(=O)c1c(F)c(F)c(F)c(F)c1F [BP-1-102 (1), 4-(N-(4-Cyclohexylbenzyl)-2-(2,3,4,5,6-pentafluoro-N-methylphenylsulfonamido)acetamido)-2-hydroxybenzoic acid, reference compound]
inhibition of constitutive STAT3 Y705 phosphorylation [2]: inhibited constitutive STAT3 phosphorylation
cytotoxicity by annexin V/PI staining and FACS (TRAMP-C2 cells): confirmed
IC50 [4]: 7.8 ± 1.1 µM
IC50 (RPE-1): 13.9 ± 0.2 µM
IC50 [6]: 7.9 ± 4.5 µM
cell death induction (annexin V/PI, FACS) (MDA-MB-231 cells): cell death induction was confirmed
cytotoxicity by annexin V/PI staining and FACS (TC-1 cells): confirmed
IC50 [7]: 18 ± 8.3 µM
IC50 ([1]; Homo sapiens, MDA-MB-231, 24 h, read-out: IC50±SD MDA-MB-231, resazurin assay, 24 h): 15 µM
IC50 ([1]; read-out: IC50±SD MDA-MB-231, resazurin assay, 24 h): 15 ± 3.7 µM

CN(CC(=O)N(Cc1ccccc1)c1ccc(C(=O)O)c(O)c1)S(=O)(=O)c1c(F)c(F)c(F)c(F)c1F [Compound 4, 4-(N-(Benzyl)-2-(2,3,4,5,6-pentafluoro-N-methylphenylsulfonamido)acetamido)-2-hydroxybenzoic acid]
IC50 (RPE-1): > 50 µM
IC50 [7]: > 50 µM
cytotoxic effect in MDA-MB-231 (in words) ([1]; 24 h, resazurin assay): mild-to-negligible cytotoxicity
IC50 [1, 9]: > 50 µM
IC50 [8]: > 50 µM

COc1ccc(CN(C(=O)CN(C)S(=O)(=O)c2c(F)cc(F)cc2F)c2ccc(C(=O)O)c(O)c2)cc1 [Compound 7, 4-(N-(4-Methoxybenzyl)-2-(2,4,6-trifluoro-N-methylphenylsulfonamido)acetamido)-2-hydroxybenzoic acid]
cytotoxic effect in MDA-MB-231 (in words) ([1]; 24 h, resazurin assay): lacking any significant cytotoxicity; also recorded: complete loss of cytotoxic activity
